One assay deals with T1, human CYP51 (hCYP51) (Homo sapiens, UniProt Q16850).
T1 construct: gene CYP51A1
T1 sequence (Q16850 1-509): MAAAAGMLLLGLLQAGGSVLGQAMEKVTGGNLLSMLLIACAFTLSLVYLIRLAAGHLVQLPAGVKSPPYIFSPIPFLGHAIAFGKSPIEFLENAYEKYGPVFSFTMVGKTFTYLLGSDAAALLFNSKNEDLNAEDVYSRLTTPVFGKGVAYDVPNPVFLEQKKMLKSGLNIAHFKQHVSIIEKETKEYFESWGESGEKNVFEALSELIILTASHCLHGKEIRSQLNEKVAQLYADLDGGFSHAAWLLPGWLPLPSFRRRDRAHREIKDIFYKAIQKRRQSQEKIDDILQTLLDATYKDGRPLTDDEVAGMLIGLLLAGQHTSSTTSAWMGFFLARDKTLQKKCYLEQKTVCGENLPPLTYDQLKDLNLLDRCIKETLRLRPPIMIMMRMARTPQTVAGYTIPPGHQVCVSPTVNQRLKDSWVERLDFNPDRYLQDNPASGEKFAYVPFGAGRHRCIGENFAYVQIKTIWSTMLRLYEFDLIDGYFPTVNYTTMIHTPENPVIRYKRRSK
Briefly: Kd reported; presumably UV-visible difference spectroscopy (type II), human assay not described in Methods. Type of assay: binding.

Assay [1] concerns the target T2, Sterol 14α-demethylase (CYP51) from Candida albicans (CaCYP51) (Candida albicans, UniProt P10613).
T2 construct: gene ERG11
Nature of the assay: UV-visible difference spectroscopy (type II spectral response) with isolated CYP51. The format is binding.

T2 sequence (P10613 whole entry): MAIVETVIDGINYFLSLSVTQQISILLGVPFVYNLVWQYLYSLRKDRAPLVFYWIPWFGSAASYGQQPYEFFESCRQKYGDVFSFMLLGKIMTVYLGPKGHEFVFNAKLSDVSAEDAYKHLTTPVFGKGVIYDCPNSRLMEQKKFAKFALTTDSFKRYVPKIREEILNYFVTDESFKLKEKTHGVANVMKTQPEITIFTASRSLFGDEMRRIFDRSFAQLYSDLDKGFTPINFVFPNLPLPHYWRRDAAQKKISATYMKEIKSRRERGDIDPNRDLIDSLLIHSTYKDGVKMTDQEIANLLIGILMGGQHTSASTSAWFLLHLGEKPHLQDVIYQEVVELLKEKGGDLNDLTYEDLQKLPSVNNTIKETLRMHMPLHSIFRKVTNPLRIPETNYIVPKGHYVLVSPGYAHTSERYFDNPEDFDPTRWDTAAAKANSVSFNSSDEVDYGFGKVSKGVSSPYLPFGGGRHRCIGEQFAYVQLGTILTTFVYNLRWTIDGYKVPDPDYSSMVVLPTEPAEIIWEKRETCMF

On to `CC(=O)N1CCN(c2ccc(OC[C@H]3CO[C@](Cn4ccnc4)(c4ccc(Cl)cc4Cl)O3)cc2)CC1` (racemic) [ketoconazole], for which the Kd (at human CYP51 (hCYP51); in assay [1]) was under 50 nM throughout.
